The source of these data is patent US20090149512A1, “Use of Ghrelin Antagonists to the Treatment of Certain CNS Diseases” (Novo Nordisk A/S, priority 2004, published 2009).

The test system of the assay is diabetic ob/ob mice. Put plainly: Assessment of level of wakefulness/activity (locomotor activity, light-beam interruption method). In kind it is in vivo. The conditions noted are these: 20 mg/kg i.p. in saline once daily for 14 days, male, 8 months old. As to the method:
The effect of an administered substance (for example a ghrelin antagonist) on the level of wakefulness or activity in animal subjects (for example, mice) may be assessed by means of an activity test in which the primary measurement parameter is locomotor activity.
Baseline activity is determined for all the animals 1-2 days prior to administration of saline (placebo) or ghrelin antagonist. The animals are subsequently monitored, either acutely or at the end of a more sub-chronic or chronic treatment lasting several days or weeks, for behavioural sensitization. On testing days, the animals are allowed to acclimatize to the behavioural monitors for 30 minutes prior to data accumulation if the monitors in question are different from their “home” cages. Activity is recorded for at least 1 hour on each of the testing days (baseline and post-treatment test). In a suitable arrangement, transparent chambers of Plexiglas™ are equipped with aluminium frames on which are mounted infrared light emitters and detectors. The detectors are interfaced to a personal computer (PC). Behavioural or psychomotor activity is defined as the total number of light-beam interruptions recorded during each testing session. […]

The structures appear in SMILES notation.

Regarding `CNC(=O)c1noc(C(Cc2ccccc2)N(C)C(=O)[C@@H](Cc2ccc3ccccc3c2)NC(=O)/C=C/C(C)(C)N)n1` (single isomer, unassigned) [D2], the “behaviour of treated animals when observed” value is “awake and interested in their environment”. For the same compound, the “level of wakefulness/activity (locomotor activity) assessed using the light-beam interruption method” value (versus saline control) is “became surprisingly active and awake for the duration of the study”.
